# Measured values from ChEMBL document CHEMBL3879885 (2006).
# Biological target: Potassium voltage-gated channel subfamily A member 2 (Homo sapiens, UniProt P16389)
# Experiment: Inhibition of Kv1.2 (unknown origin)
# Conditions: not given
# Potassium voltage-gated channel subfamily A member 2, sequence (P16389 whole entry): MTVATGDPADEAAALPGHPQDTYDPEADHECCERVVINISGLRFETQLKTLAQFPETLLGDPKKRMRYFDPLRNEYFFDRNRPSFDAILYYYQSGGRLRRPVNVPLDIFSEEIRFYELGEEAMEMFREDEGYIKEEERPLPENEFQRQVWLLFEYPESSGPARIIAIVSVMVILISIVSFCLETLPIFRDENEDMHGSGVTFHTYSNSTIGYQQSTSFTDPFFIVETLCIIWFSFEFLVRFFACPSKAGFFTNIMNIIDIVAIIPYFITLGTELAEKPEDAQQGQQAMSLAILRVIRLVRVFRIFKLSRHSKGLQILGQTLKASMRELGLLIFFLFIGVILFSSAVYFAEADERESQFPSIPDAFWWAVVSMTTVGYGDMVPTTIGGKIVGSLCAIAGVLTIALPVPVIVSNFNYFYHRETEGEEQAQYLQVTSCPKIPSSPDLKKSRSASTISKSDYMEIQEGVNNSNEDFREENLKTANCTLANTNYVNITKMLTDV
row,EC50,Compound
1,250 nM,O=c1ccc2c(OCCCCOc3ccccc3)c3ccoc3cc2o1

# Biological target: T1, Potassium voltage-gated channel subfamily A member 3 (Homo sapiens, UniProt P22001)
# Experiment: Ratio of IC50 for Kv1.3 in human central memory T cells to IC50 for Kv1.3 in CD4+ MBP-specific multiple sclerosis patient effector memory T lymphocytes stimulated with 3 times MBP
# Type: cell-based
# Conditions: T-cell
# T1 sequence (P22001 whole entry): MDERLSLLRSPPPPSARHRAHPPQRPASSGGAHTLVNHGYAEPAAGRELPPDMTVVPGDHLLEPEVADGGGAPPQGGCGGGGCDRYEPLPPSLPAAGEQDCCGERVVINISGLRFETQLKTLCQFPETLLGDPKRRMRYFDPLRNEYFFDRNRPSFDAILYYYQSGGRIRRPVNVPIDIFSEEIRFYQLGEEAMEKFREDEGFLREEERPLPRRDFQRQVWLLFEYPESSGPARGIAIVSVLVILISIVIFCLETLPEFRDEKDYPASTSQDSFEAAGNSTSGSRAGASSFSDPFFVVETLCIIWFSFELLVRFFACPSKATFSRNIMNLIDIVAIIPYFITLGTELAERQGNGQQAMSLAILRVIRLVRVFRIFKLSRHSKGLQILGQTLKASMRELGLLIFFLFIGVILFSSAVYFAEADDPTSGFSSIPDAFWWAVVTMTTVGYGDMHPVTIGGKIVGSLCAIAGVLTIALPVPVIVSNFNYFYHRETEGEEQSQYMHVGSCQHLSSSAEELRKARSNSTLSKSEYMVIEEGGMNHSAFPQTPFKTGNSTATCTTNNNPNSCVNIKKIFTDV
row,Compound,Ratio IC50
1,CC[C@H](C)[C@@H]1NC(=O)[C@@H](NC(=O)[C@H](CO)NC(=O)[C@@H](N)CCCNC(=N)N)CSSC[C@@H](C(=O)O)NC(=O)[C@H]([C@@H](C)O)NC(=O)CNC(=O)[C@@H]2CSSC[C@@H]3NC(=O)[C@H](CCC(N)=O)NC(=O)[C@H](Cc4ccccc4)NC(=O)[C@H](C)NC(=O)[C@H]([C@@H](C)O)NC(=O)[C@H](CSSC[C@H](NC(=O)[C@H](Cc4ccccc4)NC(=O)[C@@H](CO)NC(=O)[C@@H](CC(C)C)NC(=O)[C@H](CCCNC(=N)N)NC(=O)[C@H](Cc4ccc(O)cc4)NC(=O)[C@H](CCCCN)NC(=O)[C@H](CCSC)NC(=O)[C@H](CO)NC(=O)[C@H](Cc4cnc[nH]4)NC(=O)[C@H](CCCCN)NC3=O)C(=O)N[C@@H](CCCNC(=N)N)C(=O)N[C@@H](CCCCN)C(=O)N[C@@H]([C@@H](C)O)C(=O)N2)NC(=O)[C@H](CCCNC(=N)N)NC(=O)[C@H](CO)NC(=O)[C@H](CCCCN)NC(=O)[C@@H]2CCCN2C(=O)[C@H]([C@@H](C)CC)NC(=O)[C@H]([C@@H](C)O)NC(=O)[C@H](CC(=O)O)NC1=O,10

# Biological target: T1, Potassium voltage-gated channel subfamily A member 3
# Experiment: Inhibition of Kv1.3 (unknown origin)
# Type: single protein
# Conditions: not given
row,EC50,Compound
1,700 nM,Cc1ccc(OCCCCOc2c3ccoc3cc3oc(=O)ccc23)c([N+](=O)[O-])c1
2,14 nM,CCc1ccc(OCCCOc2c3ccoc3cc3oc(=O)ccc23)cc1
3,20 nM,O=c1ccc2c(OCCCCOc3cccc4ccccc34)c3ccoc3cc2o1
4,5 nM,O=c1ccc2c(OCCCCOc3ccc(Cl)cc3)c3ccoc3cc2o1
5,13 nM,CCc1ccc(OCCCCOc2c3ccoc3cc3oc(=O)ccc23)cc1
6,35 nM,COc1ccc2sc(SCCCCOc3c4ccoc4cc4oc(=O)ccc34)nc2c1
7,1300 nM,N#CCCCCOc1c2ccoc2cc2oc(=O)ccc12
8,50 nM,O=c1ccc2c(OCCCOCc3ccccc3)c3ccoc3cc2o1
9,12 nM,O=c1ccc2c(OCCCCOc3ccc4ccccc4c3)c3ccoc3cc2o1
10,120 nM,COc1cc(OC)cc(OCCCCOc2c3ccoc3cc3oc(=O)ccc23)c1
11,45 nM,COc1cccc(OCCCOc2c3ccoc3cc3oc(=O)ccc23)c1
12,21 nM,COc1cccc(OCCCCOc2c3ccoc3cc3oc(=O)ccc23)c1
13,16 nM,O=c1ccc2c(OCCCCOc3ccc(Oc4ccccc4)cc3)c3ccoc3cc2o1
14,5000 nM,N#CCCCOc1c2ccoc2cc2oc(=O)ccc12
15,7 nM,O=c1ccc2c(OCCCCOc3ccc([N+](=O)[O-])cc3)c3ccoc3cc2o1
16,5000 nM,N#CCCCOc1c2occc2cc2ccc(=O)oc12
17,8 nM,COc1ccc(OCCCCOc2c3ccoc3cc3oc(=O)ccc23)cc1

row,EC50,Compound
1,125 nM,O=c1ccc2ccc(OCCCCOc3c4ccoc4cc4oc(=O)ccc34)cc2o1
2,15 nM,O=c1ccc2c(OCCCCCOc3ccccc3)c3ccoc3cc2o1
3,5000 nM,N#CCCCCOc1c2occc2cc2ccc(=O)oc12
4,75 nM,COc1cc(OC)cc(OCCCOc2c3ccoc3cc3oc(=O)ccc23)c1
5,32 nM,COc1cc(OC)cc(OCCCCCOc2c3ccoc3cc3oc(=O)ccc23)c1
6,450 nM,O=c1ccc2c(OCCCCn3cccn3)c3ccoc3cc2o1
7,10 nM,O=c1ccc2c(OCCOCc3ccccc3)c3ccoc3cc2o1
8,35 nM,CCc1ccc(OCCCCCOc2c3ccoc3cc3oc(=O)ccc23)cc1
9,65 nM,O=c1ccc2c(OCCCCOc3cccc(C(F)(F)F)c3)c3ccoc3cc2o1
10,31 nM,O=C(CCCOc1c2ccoc2cc2oc(=O)ccc12)c1ccccc1
11,49 nM,O=c1ccc2c(OCCCCOCc3ccccc3)c3ccoc3cc2o1
12,7 nM,Cc1ccc(OCCCCOc2c3ccoc3cc3oc(=O)ccc23)cc1
13,175 nM,Cc1nnc(SCCCCOc2c3ccoc3cc3oc(=O)ccc23)s1
14,50 nM,O=c1ccc2c(OCCCCSc3ncccn3)c3ccoc3cc2o1
15,15 nM,O=c1ccc2c(OCCCOc3ccccc3)c3ccoc3cc2o1
16,10 nM,O=c1ccc2c(OCCCOc3ccc(Cl)cc3)c3ccoc3cc2o1
